# Laboratory results as given in patent US11857550B2, “Benzathine analogs” (University of Pittsburgh—Of the Commonwealth System of …, priority 2012, dated 2024).
# Tests used:
# C57BL6 mice [1] = test: Carrageenan induced paw edema; type: in vivo; settings: 200 ug IP daily, 48 h
# Description: FIGS. 16A-16C. BC-1215 reduces Carrageenan induced paw edema. FIGS. 16A-16C. C57BL6 mice were deeply anesthetized with ketamine (80-100 mg/kg i.p.) and xylazine (10 mg/kg i.p.). Mice were received a subplantar administration of 25 ul of saline or 25 ul of carrageenan (1% in saline), followed by an IP injection of […] of BC-1215 daily for two days. Mice were then euthanized; the thickness and volume of paw was measured (FIG. 16B-16C). (n=4 mice/group, *p<0.05 versus vehicle)
# BC-1215 ameliorates Carrageenan induced paw edema. BC-1215 also was tested in a mouse paw edema model to confirm its anti-inflammatory activity. Mice received subplantar administration of 25 ul of saline or 25 ul of carrageenan (1% in saline) (Posadas et al., Br J Pharmacol, 2004. 142(2):p. 331-8), followed by an IP injection of 200 ug of BC-1215 daily. 48 h later, mice were euthanized; the thickness and volume of the paw was measured. […] Thus, the FBXO3 inhibitor BC-1215 suppresses inflammation in a nonpulmonary model of edema involving the extremities.
# C57BL6 mice [2] = test: LPS induced (endotoxin) septic shock model; type: in vivo; settings: IP, 10 min before 100 ug LPS IP; blood at 90 min
# Description: FIG. 11. BC-1215 inhibits cytokine release from in an endotoxin septic shock model. BC-1215 was solubilized in water using acetic acid in a 1:2 molar ratio; the stock solution of BC-1215 was 5 mg/ml. C57BL6 mice were deeply anesthetized with ketamine (80-100 mg/kg intraperitoneally (i.p.) and xylazine (10 mg/kg i.p.). 500 ug, 100 ug, 20 ug, 4 ug and 0.8 ug of BC-1215 was administered to mice through an intraperitoneal (IP) injection. 10 min later, mice were given 100 ug of LPS (E. coli) through an IP injection. 90 min later, mice were euthanized; blood was collected and tested for IL1-β, IL-6 and TNFα assays. (n=3/mice group at each dose)
# Compound BC-1215 was first solubilized in water using acetic acid in a 1:2 molar ratio; the stock solution of BC-1215 was 5 mg/ml. 500 ug, 100 ug, 20 ug, 4 ug and 0.8 ug of BC-1215 was administered to mice though an intraperitoneal (IP) injection. 10 min later, mice were given 100 ug of LPS (E. coli) through an IP injection. 90 min later, mice were euthanized; blood was collected and tested for IL1-β, IL-6 and TNFα cytokine assays.
# FBXO3 = FBXO3 (Homo sapiens, UniProt Q9UK99); test: In vitro ubiquitination assay, SCFFBXO3 complex with V5-FBXL2 substrate; type: biochemical; settings: increased concentration of compound
# Text: FIGS. 10A-10E. BC-1215 inhibits FBXO3 and decreases TRAF protein levels. FIG. 10A. […] FIG. 10B. In vitro ubiquitination assays. […] FIG. 10C. […] Cells were collected and assayed for immunoblotting. FIG. 10D. […] FIG. 10E.
# BC-1215 inhibits FBXO3 and decreases TRAF protein levels. […] Cells were collected and assayed for protein immunoblotting.
# Staphylococcus aureus = test: Kirby-Bauer antibiotic sensitivity test on Mueller-Hinton agar; type: cell-based; settings: 6 mm filter papers, 37 degrees, 24 h
# Description: FIG. 19. Kirby-Bauer antibiotic testing. BC-1215 was tested in antibiotic sensitivity tests using Mueller-Hinton agar. Briefly, 6 mm filter papers containing different amounts of BC-1215 or gentamicin (positive control) were added on the Mueller-Hinton agar pre-exposed to Staphylococcus aureus. The plates were incubated at 37 degrees for 24 h. Zone sizes were measured and marked by a red circle indicating positive results.
# Briefly, 6 mm filter papers containing different amounts of BC-1215 or gentamicin antibiotic (positive control) were added on the Mueller-Hinton agar pre-exposed to Staphylococcus aureus. The plates were incubated at 37 degrees for 24 h. Zone sizes were measured and marked by a red circle indicating positive results.
# C57BL6 mice [3] = test: DSS induced (acute) colitis; type: in vivo; settings: 200 ug IP daily, 3.5% DSS up to five days
# Description: FIGS. 17A-17D. BC-1215 reduces DSS induced colonic inflammation. FIGS. 17A-FIG. 17C. C57BL6 mice were fed with water containing 3.5% dextran sulfate sodium (DSS) for up to five days. Mice were treated with either vehicle or 100 ug of BC-1215 daily (via IP injection). Mice were then euthanized; the length of the colon was measured and graphed in (FIG. 17A). Colonic tissues were also analyzed for IL1β (FIG. 17B) and TNFα (FIG. 17C) by ELISA. (n=4 mice/group, *p<0.05 versus DSS) FIG. 17D, H&E staining was performed on colonic samples. (n=4 mice/group, *p<0.05 versus DSS)
# FIGS. 24A-24E. […] A-D. C57BL6 mice were fed with water ad lib containing 3.5% dextran sulfate sodium (DSS) for up to five days. Mice were treated with either vehicle (control [CON]) or BC-1261 (150 μg) daily (via an i.p. injection), or BC-1261 were administered into drinking water at 30 μg/ml (po). Mice were then euthanized and the length of the colon was measured and graphed in (A-B). Colonic tissues were also analyzed for TNFα (C) and IL6(D). E. H&E staining was performed on colonic sections. The data represent n=4 mice/group, *P<0.05 versus DSS and **P<0.05 versus CON.
# BC-1215 ameliorates DSS induced colitis. BC-1215 was also tested in a mouse colitis model to confirm its anti-inflammatory activity. Briefly, C57BL6 mice were fed with water containing 3.5% dextran sulfate sodium (DSS) for up to five days. Mice were treated with either vehicle or 200 ug of BC-1215 daily (via IP injection). Mice were then euthanized; the length of colons was measured. […] Colonic tissue cytokine levels were analyzed. […] Thus, the FBXO3 inhibitor BC-1215 suppresses inflammation in chemical induced colitis model in mice.
# Description for Hela cells: Hela cells were treated with BC-1215 at different concentrations for 24 h before cell cycle analysis (BD bioscience).
# FBXO3, sequence (Q9UK99 whole entry): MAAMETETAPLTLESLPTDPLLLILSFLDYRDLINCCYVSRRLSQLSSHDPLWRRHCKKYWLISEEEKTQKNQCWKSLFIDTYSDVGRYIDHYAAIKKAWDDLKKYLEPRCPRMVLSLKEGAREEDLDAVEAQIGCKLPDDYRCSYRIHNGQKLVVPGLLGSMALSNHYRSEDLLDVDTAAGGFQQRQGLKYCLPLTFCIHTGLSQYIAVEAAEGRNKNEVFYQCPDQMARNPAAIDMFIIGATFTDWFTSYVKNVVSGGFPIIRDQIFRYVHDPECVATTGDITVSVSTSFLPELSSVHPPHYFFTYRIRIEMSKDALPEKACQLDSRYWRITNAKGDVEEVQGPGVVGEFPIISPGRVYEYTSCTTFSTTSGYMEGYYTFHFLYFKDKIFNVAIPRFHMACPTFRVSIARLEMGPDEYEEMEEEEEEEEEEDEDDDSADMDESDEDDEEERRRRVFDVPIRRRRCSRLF
# FBXO3, sequence (P63208 whole entry partner): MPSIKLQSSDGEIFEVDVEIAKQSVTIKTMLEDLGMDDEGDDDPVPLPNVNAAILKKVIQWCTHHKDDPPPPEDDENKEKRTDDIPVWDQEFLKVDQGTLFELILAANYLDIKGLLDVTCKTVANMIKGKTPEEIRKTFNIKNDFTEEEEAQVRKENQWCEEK
# FBXO3, sequence (Q13616 whole entry partner): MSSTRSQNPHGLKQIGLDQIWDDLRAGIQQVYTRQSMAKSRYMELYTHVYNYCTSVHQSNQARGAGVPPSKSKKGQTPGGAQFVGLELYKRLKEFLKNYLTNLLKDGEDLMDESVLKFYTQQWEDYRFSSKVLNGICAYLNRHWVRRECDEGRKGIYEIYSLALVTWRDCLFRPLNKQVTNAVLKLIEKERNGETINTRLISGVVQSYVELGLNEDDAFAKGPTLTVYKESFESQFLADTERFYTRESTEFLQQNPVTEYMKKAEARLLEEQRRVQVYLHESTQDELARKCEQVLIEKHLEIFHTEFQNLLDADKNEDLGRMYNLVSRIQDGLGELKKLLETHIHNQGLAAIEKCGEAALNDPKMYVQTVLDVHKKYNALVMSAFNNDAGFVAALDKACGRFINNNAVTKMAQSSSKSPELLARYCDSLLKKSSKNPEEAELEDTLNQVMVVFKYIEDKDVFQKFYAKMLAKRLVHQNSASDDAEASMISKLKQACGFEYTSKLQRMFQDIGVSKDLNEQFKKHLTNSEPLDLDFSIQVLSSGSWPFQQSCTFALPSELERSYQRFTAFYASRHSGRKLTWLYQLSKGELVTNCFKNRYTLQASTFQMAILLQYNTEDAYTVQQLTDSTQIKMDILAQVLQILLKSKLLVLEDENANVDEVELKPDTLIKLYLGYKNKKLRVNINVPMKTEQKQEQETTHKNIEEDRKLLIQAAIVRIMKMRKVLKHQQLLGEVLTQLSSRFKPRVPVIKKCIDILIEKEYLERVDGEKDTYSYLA
# FBXO3, sequence (P62877 whole entry partner): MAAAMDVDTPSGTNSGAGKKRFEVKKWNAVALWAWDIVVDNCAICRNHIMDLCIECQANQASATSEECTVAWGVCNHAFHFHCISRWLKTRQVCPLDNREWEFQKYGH
smiles,measurement,setting,value
c1ccc(-c2ccc(CNCCNCc3ccc(-c4ccccn4)cc3)cc2)nc1 [BC-1215],paw edema,C57BL6 mice [1],significantly reduced
same,paw thickness,C57BL6 mice [1],significantly reduced
same,cell cycle progression,Hela cells,did not significantly alter cell cycle progression
same,IC50 IL-1β,C57BL6 mice [2],1 mg/kg
same,IC50 IL-6,C57BL6 mice [2],2.5 mg/kg
same,IC50 TNFα,C57BL6 mice [2],1.2 mg/kg
same,FBXO3 catalyzed FBXL2 polyubiquitination,FBXO3,able to inhibit FBXO3 catalyzed FBXL2 polyubiquitination
same,S. aureus proliferation (zone of inhibition),Staphylococcus aureus,inhibits S. aureus proliferation
same,IL1β levels in colon tissues,C57BL6 mice [3],remarkable reduction
same,TNFα levels in colon tissues,C57BL6 mice [3],remarkable reduction
same,colon length,C57BL6 mice [3],no significant decrease in colon length compared to control
same,colonic tissue injury (H&E),C57BL6 mice [3],significantly reduced
